According to patent US10251892B2, “Bicyclic heterocycles as FGFR4 inhibitors” (Incyte Corporation, priority 2015, dated 2019):

Target: FGFR3 enzyme (Homo sapiens (Human), UniProt P22607)
Assay: FGFR Enzymatic Assay (peptide phosphorylation, FRET), FGFR3
Assay type: biochemical
Details: IC50 ratio showing FGFR3 selectivity; pre-incubated for 4 hours
Method: The inhibitor potency of the exemplified compounds was measured in an enzyme assay that measures peptide phosphorylation using FRET measurements to detect product formation. Inhibitors were serially diluted in DMSO and a volume of 0.5 μL was transferred to the wells of a 384-well plate.
GraphPad prism3 was used to analyze the data.

Sequence of FGFR3 enzyme (P22607 23-806): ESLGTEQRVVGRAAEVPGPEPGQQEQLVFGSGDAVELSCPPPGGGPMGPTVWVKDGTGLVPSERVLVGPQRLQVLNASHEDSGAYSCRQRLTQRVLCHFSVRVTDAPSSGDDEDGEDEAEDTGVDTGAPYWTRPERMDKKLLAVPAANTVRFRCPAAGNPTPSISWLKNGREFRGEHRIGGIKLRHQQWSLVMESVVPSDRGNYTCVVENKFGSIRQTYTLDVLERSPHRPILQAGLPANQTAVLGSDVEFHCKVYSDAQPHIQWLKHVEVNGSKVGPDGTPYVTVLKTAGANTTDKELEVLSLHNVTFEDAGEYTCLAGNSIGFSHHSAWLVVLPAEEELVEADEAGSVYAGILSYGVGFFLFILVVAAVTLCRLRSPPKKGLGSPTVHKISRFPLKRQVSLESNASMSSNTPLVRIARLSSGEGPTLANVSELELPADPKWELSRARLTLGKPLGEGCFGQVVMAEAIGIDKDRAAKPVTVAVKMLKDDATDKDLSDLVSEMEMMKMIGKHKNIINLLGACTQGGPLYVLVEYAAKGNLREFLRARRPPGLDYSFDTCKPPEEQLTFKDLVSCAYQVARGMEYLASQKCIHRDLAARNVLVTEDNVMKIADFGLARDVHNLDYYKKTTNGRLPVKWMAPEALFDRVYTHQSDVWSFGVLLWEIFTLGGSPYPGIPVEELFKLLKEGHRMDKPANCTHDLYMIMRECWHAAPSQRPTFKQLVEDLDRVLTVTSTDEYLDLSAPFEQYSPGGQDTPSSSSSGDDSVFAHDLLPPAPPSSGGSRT

Structure (SMILES)	FGFR1/FGFR3	FGFR4/FGFR3
COc1cc(OC)c(F)c(N2Cc3cnc(-c4cnn(CC5CCCS(=O)(=O)N5)c4)cc3C3(CC3)C2=O)c1F (stereo not shown) [Example 162, 2′-(2,6-difluoro-3,5-dimethoxyphenyl)-6′-{1-[(1,1-dioxido-1,2-thiazinan-3-yl)methyl]-1H-pyrazol-4-yl}-1′H-spiro[cyclopropane-1,4′-[2,7]naphthyridin]-3′(2′H)-one]	>5	>1
COc1cc(OC)c(F)c(N2Cc3cnc(-c4cn(C)nc4C)cc3N(C3CC3)C2=O)c1F [Example 83, 1-cyclopropyl-3-(2,6-difluoro-3,5-dimethoxyphenyl)-7-(1,3-dimethyl-1H-pyrazol-4-yl)-3,4-dihydropyrido[4,3-d]pyrimidin-2(1H)-one]	>5	>5
CCNC(=O)c1ccc(-c2cc3c(cn2)CN(c2c(F)c(OC)cc(OC)c2F)C(=O)N3CC)cn1 [Example 175, 5-(3-(2,6-difluoro-3,5-dimethoxyphenyl)-1-ethyl-2-oxo-1,2,3,4-tetrahydropyrido[4,3-d]pyrimidin-7-yl)-N-ethylpicolinamide]	>10	>5
CCCn1cc(N2C(=O)N(c3c(F)c(OC)cc(OC)c3F)Cc3cnc(-c4cn(C)nc4C)cc32)cn1 [Example 132, 3-(2,6-difluoro-3,5-dimethoxyphenyl)-7-(1,3-dimethyl-1H-pyrazol-4-yl)-1-(1-propyl-1H-pyrazol-4-yl)-3,4-dihydropyrido[4,3-d]pyrimidin-2(1H)-one]	>3	>5
COc1cc(OC)c(F)c(N2Cc3cnc(-c4cn(C)nc4C)cc3N(c3cnn(C4CC4)c3)C2=O)c1F [Example 130, 1-(1-cyclopropyl-1H-pyrazol-4-yl)-3-(2,6-difluoro-3,5-dimethoxyphenyl)-7-(1,3-dimethyl-1H-pyrazol-4-yl)-3,4-dihydropyrido[4,3-d]pyrimidin-2(1H)-one]	>5	>5
COc1cc(OC)c(F)c(N2Cc3cnc(-c4cn(C)nc4C)cc3N(c3ccc(C(=O)N(C)C)cc3)C2=O)c1F [Example 113, 4-(3-(2,6-difluoro-3,5-dimethoxyphenyl)-7-(1,3-dimethyl-1H-pyrazol-4-yl)-2-oxo-3,4-dihydropyrido[4,3-d]pyrimidin-1(2H)-yl)-N,N-dimethylbenzamide]	>3	>5
COc1cc(OC)c(F)c(N2Cc3cnc(-c4cnn(C)c4)cc3C3(CC3)C2=O)c1F [Example 186, 2′-(2,6-difluoro-3,5-dimethoxyphenyl)-6′-(1-methyl-H-pyrazol-4-yl)-1′,2′-dihydro-3′H-spiro[cyclopropane-1,4′-[2,7]naphthyridin]-3′-one]	>5	>5
CCCNC(=O)c1ccc(-c2cc3c(cn2)CN(c2c(F)c(OC)cc(OC)c2F)C(=O)N3CC)cn1 [Example 179, 5-(3-(2,6-difluoro-3,5-dimethoxyphenyl)-1-ethyl-2-oxo-1,2,3,4-tetrahydropyrido[4,3-d]pyrimidin-7-yl)-N-propylpicolinamide]	>5	>10
COc1cc(OC)c(F)c(N2Cc3cnc(-c4cn(C)nc4C)cc3N(C3CCCC3)C2=O)c1F [Example 32, 1-cyclopentyl-3-(2,6-difluoro-3,5-dimethoxyphenyl)-7-(1,3-dimethyl-1H-pyrazol-4-yl)-3,4-dihydropyrido[4,3-d]pyrimidin-2(1H)-one]	>1	>5
COc1cc(OC)c(F)c(N2Cc3cnc(-c4ccccc4)cc3C3(CC3)C2=O)c1F [Example 17, 2′-(2,6-difluoro-3,5-dimethoxyphenyl)-6′-phenyl-1′H-spiro[cyclopropane-1,4′-[2,7]naphthyridin]-3′(2′H)-one]	>10	–
COc1cc(OC)c(F)c(N2Cc3cnc(-c4cnn(C5CCN(C(C)=O)C5)c4)cc3C3(CC3)C2=O)c1F (stereo not shown) [Example 150, 6′-(1-(1-acetylpyrrolidin-3-yl)-1H-pyrazol-4-yl)-2′-(2,6-difluoro-3,5-dimethoxyphenyl)-1′H-spiro[cyclopropane-1,4′-[2,7]naphthyridin]-3′(2′H)-one]	>5	>5
COc1cc(OC)c(F)c(N2Cc3cnc(-c4cn(CCCN5CCOCC5)nc4C)cc3C3(CC3)C2=O)c1F [Example 146, 2′-(2,6-difluoro-3,5-dimethoxyphenyl)-6′-(3-methyl-1-(3-morpholinopropyl)-1H-pyrazol-4-yl)-1′H-spiro[cyclopropane-1,4′-[2,7]naphthyridin]-3′(2′H)-one]	>10	>5
CCN1C(=O)N(c2c(F)c(OC)cc(OC)c2F)Cc2cnc(-c3ccc(C(=O)NCCO)nc3)cc21 [Example 177, 5-(3-(2,6-difluoro-3,5-dimethoxyphenyl)-1-ethyl-2-oxo-1,2,3,4-tetrahydropyrido[4,3-d]pyrimidin-7-yl)-N-(2-hydroxyethyl)picolinamide]	>5	>10

Further lines, results first:

FGFR1/FGFR3	FGFR4/FGFR3	Structure (SMILES)
>5	>5	COc1cc(OC)c(F)c(N2Cc3cnc(-c4cn(C)nc4C)cc3N(Cc3ccnc(C)c3)C2=O)c1F [Example 68, 3-(2,6-difluoro-3,5-dimethoxyphenyl)-7-(1,3-dimethyl-1H-pyrazol-4-yl)-1-((2-methylpyridin-4-yl)methyl)-3,4-dihydropyrido[4,3-d]pyrimidin-2(1H)-one]
>10	>10	COc1cc(CN2C(=O)N(c3c(F)c(OC)cc(OC)c3F)Cc3cnc(-c4cn(C)nc4C)cc32)ccn1 [Example 58, 3-(2,6-difluoro-3,5-dimethoxyphenyl)-7-(1,3-dimethyl-1H-pyrazol-4-yl)-1-((2-methoxypyridin-4-yl)methyl)-3,4-dihydropyrido[4,3-d]pyrimidin-2(1H)-one]
>5	>10	COc1cc(OC)c(F)c(N2Cc3cnc(-c4cn(C)nc4C)cc3N(c3cn[nH]c3)C2=O)c1F [Example 129, 3-(2,6-difluoro-3,5-dimethoxyphenyl)-7-(1,3-dimethyl-1H-pyrazol-4-yl)-1-(1H-pyrazol-4-yl)-3,4-dihydropyrido[4,3-d]pyrimidin-2(1H)-one]
>3	>5	COc1cc(OC)c(F)c(N2Cc3cnc(-c4cn(C)nc4C)cc3N(CCc3cnn(C)c3)C2=O)c1F [Example 114, 3-(2,6-difluoro-3,5-dimethoxyphenyl)-7-(1,3-dimethyl-1H-pyrazol-4-yl)-1-(2-(1-methyl-1H-pyrazol-4-yl)ethyl)-3,4-dihydropyrido[4,3-d]pyrimidin-2(1H)-one]
>5	>10	COc1cc(OC)c(F)c(N2Cc3cnc(-c4cn(C)nc4C)cc3N(Cc3cc(C)no3)C2=O)c1F [Example 35, 3-(2,6-difluoro-3,5-dimethoxyphenyl)-7-(1,3-dimethyl-1H-pyrazol-4-yl)-1-((3-methylisoxazol-5-yl)methyl)-3,4-dihydropyrido[4,3-d]pyrimidin-2(1H)-one]
>5	>5	COc1cc(OC)c(F)c(N2Cc3cnc(-c4cn(C)nc4C)cc3N(Cc3cnn(CC#N)c3)C2=O)c1F [Example 125, 2-(4-((3-(2,6-difluoro-3,5-dimethoxyphenyl)-7-(1,3-dimethyl-1H-pyrazol-4-yl)-2-oxo-3,4-dihydropyrido[4,3-d]pyrimidin-1(2H)-yl)methyl)-1H-pyrazol-1-yl)acetonitrile]
